From PubChem BioAssay (NCI)
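The compound was tested at five concentrations on cells cultured in 96-well plates, with a 48-hour exposure period. GI50 = concentration required for 50% inhibition of growth. The concentration for full growth arrest is given as TGI.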

How the values were obtained:
Experiment in all cases: NCI-60 cell line screen, 48 h
[1] = system: 786-0 renal
[2] = system: A498 renal
[3] = system: A549 NSCLC
[4] = system: ACHN renal
[5] = system: BT-549 breast
[6] = system: CAKI-1 renal
[7] = system: CCRF-CEM leukemia
[8] = system: COLO 205 colon
[9] = system: DU-145 prostate
[10] = system: EKVX NSCLC
[11] = system: HCC-2998 colon
[12] = system: HCT-116 colon
[13] = system: HCT-15 colon
[14] = system: HL-60(TB) leukemia
[15] = system: HOP-62 NSCLC
[16] = system: HOP-92 NSCLC
[17] = system: HS 578T breast
[18] = system: HT29 colon
[19] = system: IGROV1 ovarian
[20] = system: K-562 leukemia
[21] = system: KM12 colon
[22] = system: LOX IMVI melanoma
[23] = system: M14 melanoma
[24] = system: MALME-3M melanoma
[25] = system: MCF7 breast
[26] = system: MDA-MB-231 breast
[27] = system: MDA-MB-435
[28] = system: MOLT-4 leukemia
[29] = system: NCI-H226 lung
[30] = system: NCI-H23 lung
[31] = system: NCI-H522 lung
[32] = system: NCI/ADR-RES ovarian
[33] = system: OVCAR-3 ovarian
[34] = system: OVCAR-4 ovarian
[35] = system: OVCAR-5 ovarian
[36] = system: OVCAR-8 ovarian
[37] = system: PC-3 prostate
[38] = system: RPMI-8226 leukemia
[39] = system: SF-268 CNS
[40] = system: SF-295 CNS
[41] = system: SF-539 CNS
[42] = system: SK-MEL-2 melanoma
[43] = system: SK-MEL-28 melanoma
[44] = system: SK-MEL-5 melanoma
[45] = system: SK-OV-3 ovarian
[46] = system: SN12C renal
[47] = system: SNB-19 CNS
[48] = system: SNB-75 CNS
[49] = system: T-47D breast
[50] = system: TK-10 renal
[51] = system: U251 CNS
[52] = system: UACC-257 melanoma
[53] = system: UACC-62 melanoma
[54] = system: UO-31 renal
[55] = system: NCI-H460 lung
[56] = system: RXF 393 renal
[57] = system: SW-620 colon

COc1cc2c3c(n(CCCNC4=NCCS4)c(=O)c2cc1OC)-c1cc2c(cc1C3=O)OCO2
GI50 [1]: < 0.01 µM
TGI [1]: 0.0371 µM
GI50 [2]: 1.52 µM
TGI [2]: 7.68 µM
GI50 [3]: < 0.01 µM
TGI [3]: 1.33 µM
GI50 [4]: < 0.01 µM
TGI [4]: 0.135 µM
GI50 [5]: 1.73 µM
TGI [5]: 9.3 µM
GI50 [6]: < 0.01 µM
TGI [6]: 0.749 µM
GI50 [7]: < 0.01 µM
TGI [8]: 4.09 µM
GI50 [9]: < 0.01 µM
TGI [9]: 1.31 µM
GI50 [10]: 1.79 µM
TGI [10]: 8.8 µM
GI50 [11]: < 0.01 µM
GI50 [12]: < 0.01 µM
TGI [12]: 0.127 µM
GI50 [13]: 0.823 µM
TGI [13]: 3.67 µM
GI50 [14]: 0.142 µM
GI50 [15]: < 0.01 µM
TGI [16]: 1.95 µM
GI50 [17]: 1.4 µM
TGI [17]: 3.85 µM
GI50 [18]: < 0.0347 µM
TGI [18]: 0.756 µM
GI50 [19]: 0.197 µM
TGI [19]: > 100 µM
GI50 [20]: < 0.01 µM
TGI [20]: 0.631 µM
GI50 [21]: 1.11 µM
TGI [21]: 3.11 µM
GI50 [22]: < 0.01 µM
TGI [22]: 0.232 µM
GI50 [23]: < 0.01 µM
TGI [23]: 0.201 µM
GI50 [24]: 1.44 µM
TGI [24]: 5.41 µM
GI50 [25]: < 0.01 µM
GI50 [26]: 0.465 µM
TGI [26]: 1.02 µM
TGI [27]: 1.83 µM
GI50 [28]: < 0.01 µM
GI50 [29]: 0.0456 µM
TGI [29]: 0.913 µM
GI50 [30]: < 0.0123 µM
TGI [30]: 0.128 µM
GI50 [31]: 0.174 µM
TGI [31]: > 56.2 µM
GI50 [32]: < 0.0183 µM
TGI [32]: 0.319 µM
GI50 [33]: 0.203 µM
TGI [33]: 2.09 µM
GI50 [34]: 1.82 µM
TGI [34]: 6.1 µM
GI50 [35]: 0.668 µM
TGI [35]: 2.08 µM
TGI [36]: 2.11 µM
GI50 [37]: 0.722 µM
TGI [37]: 3.51 µM
GI50 [38]: < 0.0145 µM
TGI [38]: 0.296 µM
GI50 [39]: 0.188 µM
TGI [39]: 5.19 µM
GI50 [40]: < 0.01 µM
TGI [40]: 1.42 µM
GI50 [41]: < 0.0122 µM
TGI [41]: 0.283 µM
GI50 [42]: 9.98 µM
TGI [42]: > 80.6 µM
GI50 [43]: 1.12 µM
TGI [43]: 3.21 µM
GI50 [44]: 0.236 µM
TGI [44]: 2.23 µM
TGI [45]: 3.18 µM
GI50 [46]: < 0.0255 µM
TGI [46]: 0.408 µM
GI50 [47]: 1.03 µM
TGI [47]: > 100 µM
TGI [48]: 1.44 µM
TGI [49]: 2.7 µM
GI50 [50]: 4.59 µM
TGI [50]: 10.6 µM
GI50 [51]: < 0.01 µM
TGI [51]: 0.197 µM
GI50 [52]: 1.21 µM
TGI [52]: 5.67 µM
GI50 [53]: 0.0559 µM
TGI [53]: 1.66 µM
GI50 [54]: 0.147 µM
TGI [54]: > 100 µM

O=S(=O)(c1ccccc1)n1c(C(O)c2ccccc2)cc2ccccc21 (stereo not given)
TGI [1]: 29.6 µM
TGI [2]: 26.5 µM
TGI [3]: 35.3 µM
TGI [4]: 29.1 µM
TGI [5]: 32.2 µM
TGI [6]: 47.3 µM
TGI [7]: 28.9 µM
TGI [8]: 45.5 µM
TGI [9]: > 100 µM
TGI [10]: 41.6 µM
TGI [11]: 33.2 µM
TGI [12]: 34.6 µM
TGI [13]: 61.3 µM
TGI [14]: 34.9 µM
TGI [15]: 31.8 µM
TGI [16]: 38.4 µM
TGI [17]: 27.9 µM
TGI [18]: 26.2 µM
TGI [19]: 35.4 µM
TGI [20]: > 100 µM
TGI [21]: 30.3 µM
TGI [22]: > 100 µM
TGI [23]: 28.1 µM
TGI [24]: 39.2 µM
TGI [25]: 40.9 µM
TGI [26]: 49.2 µM
TGI [27]: 36.4 µM
TGI [28]: > 100 µM
TGI [29]: 29.3 µM
TGI [30]: 41.9 µM
TGI [55]: > 100 µM
TGI [32]: 30.3 µM
TGI [33]: 30.3 µM
TGI [34]: 50.2 µM
TGI [35]: 30.9 µM
TGI [36]: 49.9 µM
TGI [37]: 30.2 µM
TGI [38]: > 100 µM
TGI [56]: 30.5 µM
TGI [39]: 38.5 µM
TGI [40]: 32.2 µM
TGI [41]: 30.8 µM
TGI [42]: 31.3 µM
TGI [43]: 39.9 µM
TGI [44]: 32.4 µM
TGI [45]: 29 µM
TGI [47]: 26.7 µM
TGI [48]: 35.7 µM
TGI [57]: 64.7 µM
TGI [49]: 65.8 µM
TGI [50]: 33.6 µM
TGI [51]: 43.7 µM
TGI [52]: 34.4 µM
TGI [53]: 28 µM
TGI [54]: 24 µM
